# From doi:10.1101/2025.03.25.645215v1 (biorxiv, 2025)
# Molecular target: T1, B^0AT2/SLC6A15 (eGFP-hSLC6A15) (Homo sapiens, UniProt Q9H2J7)
# T1 sequence (Q9H2J7 1-730): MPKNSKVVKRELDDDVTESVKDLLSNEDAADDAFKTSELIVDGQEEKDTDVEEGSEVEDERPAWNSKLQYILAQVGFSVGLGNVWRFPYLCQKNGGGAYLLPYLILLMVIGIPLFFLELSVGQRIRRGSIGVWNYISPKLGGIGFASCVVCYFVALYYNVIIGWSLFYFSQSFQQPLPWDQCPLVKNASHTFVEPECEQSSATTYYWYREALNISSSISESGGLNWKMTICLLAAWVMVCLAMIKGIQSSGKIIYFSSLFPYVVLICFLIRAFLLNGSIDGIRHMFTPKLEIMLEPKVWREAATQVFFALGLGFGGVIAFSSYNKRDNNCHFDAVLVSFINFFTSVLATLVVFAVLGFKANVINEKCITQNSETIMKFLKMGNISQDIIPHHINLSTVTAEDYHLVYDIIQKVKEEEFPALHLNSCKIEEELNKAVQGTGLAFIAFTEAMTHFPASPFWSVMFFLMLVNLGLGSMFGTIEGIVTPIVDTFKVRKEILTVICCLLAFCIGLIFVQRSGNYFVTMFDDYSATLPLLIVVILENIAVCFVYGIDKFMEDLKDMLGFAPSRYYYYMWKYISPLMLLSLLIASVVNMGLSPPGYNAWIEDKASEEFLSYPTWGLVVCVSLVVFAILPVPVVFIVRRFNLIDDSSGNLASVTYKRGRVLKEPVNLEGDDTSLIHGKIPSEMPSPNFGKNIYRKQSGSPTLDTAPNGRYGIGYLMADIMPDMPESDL
# Test: cell-based
# Parameters: species or system HEK293 eGFP-hSLC6A15
# Conditions: not given
row,IC50 [µM],Structure (SMILES)
1,> 40,CC1(C)CC(=O)C2=C(C1)Nc1ccccc1N(C(=O)c1ccccc1)C2c1ccccc1Cl (stereo not shown) [11t]
2,7.1 ± 2.3,COc1ccc(C2C3=C(CC(C)(C)CC3=O)Nc3ccccc3N2C(=O)c2ccccc2)cc1OC (stereo not shown) [11w]
3,1.1 ± 0.1,CCCOc1ccc(C2C3=C(CC(C)(C)CC3=O)Nc3ccccc3N2C(=O)c2ccccc2)cc1OC (stereo not shown) [11y]

# Second part, the molecule before the results:
row,Structure (SMILES),IC50 [µM]
1,CC(=O)Oc1cccc(C2C3=C(CC(C)(C)CC3=O)Nc3ccccc3N2C(=O)c2ccccc2)c1 (stereo not shown) [11r],0.64 ± 0.07
2,CC1(C)CC(=O)C2=C(C1)Nc1ccccc1N(C(=O)c1ccccc1)C2c1ccccc1F (stereo not shown) [11s],19.9 ± 8.9
3,COc1ccccc1C1C2=C(CC(C)(C)CC2=O)Nc2ccccc2N1C(=O)c1ccccc1 (stereo not shown) [11u],> 60
4,CC1(C)CC(=O)C2=C(C1)Nc1ccccc1N(C(=O)c1ccccc1)C2c1ccc(Cl)c(Cl)c1 (stereo not shown) [11z],2.3 ± 0.4

# Same assay, conditions: read-out: B^0AT2 IC50; inhibitor
row,IC50 [µM],Structure (SMILES)
1,> 80,COc1c(Cl)cc(Cl)cc1C1C2=C(CC(C)(C)CC2=O)Nc2ccccc2N1C(=O)c1ccccc1 (stereo not shown) [11ac]

# Molecular target: T1, B^0AT2/SLC6A15 (eGFP-hSLC6A15)
# Test: cell-based
# Parameters: species or system HEK293 eGFP-hSLC6A15
# Conditions: not given
# Remark: another data set of the same source
row,IC50 [µM],Structure (SMILES)
1,> 80,CC1(C)CC(=O)C2=C(C1)Nc1ccccc1N(Cc1ccccc1)C2c1ccccc1 (stereo not shown) [13d]
2,9 ± 11,COc1ccc(C2C3=C(CC(C)CC3=O)Nc3ccccc3N2C(=O)c2ccc(F)cc2)cc1 (stereo not shown) [13f]
3,> 80,COc1ccc(C2C3=C(CC(C)(C)CC3=O)Nc3ccccc3N2C(=O)c2ccc(Cl)cc2)cc1OC (stereo not shown) [13g]
4,> 80,COc1ccc(C(=O)N2c3ccccc3NC3=C(C(=O)CCC3)C2c2ccccc2)cc1 (stereo not shown) [13j]
5,> 80,O=C1CCCC2=C1C(c1ccccc1)N(C(=O)C1CCCCC1)c1ccccc1N2 (stereo not shown) [13k]
6,> 55,O=C1CCCC2=C1C(c1ccccc1)N(C(=O)c1ccco1)c1ccccc1N2 (stereo not shown) [13l]

# More lines, now with the values behind:
row,Structure (SMILES),IC50 [µM]
1,COc1cc(C2Nc3ccccc3NC3=C2C(=O)CCC3)ccc1O (stereo not shown) [13a],> 80
2,CC1(C)CC(=O)C2=C(C1)Nc1ccccc1NC2c1ccccc1 (stereo not shown) [13c],> 80
3,CCCCOc1ccc(C2C3=C(CC(C)(C)CC3=O)Nc3ccccc3N2C(=O)c2ccccc2F)cc1 (stereo not shown) [13e],1.4 ± 0.1
4,O=C1CCCC2=C1C(c1ccccc1)N(C(=O)c1ccc(Cl)cc1)c1ccccc1N2 (stereo not shown) [13h],> 80
5,Cc1ccc(C(=O)N2c3ccccc3NC3=C(C(=O)CCC3)C2c2ccccc2)cc1 (stereo not shown) [13i],> 80
6,O=C1CCCC2=C1C(c1ccccc1)N(C(=O)c1ccc3ccccc3c1)c1ccccc1N2 (stereo not shown) [13m],> 80

# Same assay, conditions: read-out: B^0AT2 IC50; inhibitor
row,IC50 [µM],Structure (SMILES)
1,> 80,CCOc1cc(C2C3=C(CCCC3=O)Nc3ccccc3N2C(=O)CC)ccc1O (stereo not shown) [13b]

# Molecular target: T1, B^0AT2/SLC6A15 (eGFP-hSLC6A15)
# Test: cell-based
# Parameters: species or system HEK293 eGFP-hSLC6A15
# Conditions: not given
# Remark: another data set of the same source
row,IC50 [µM],Structure (SMILES)
1,1.2 ± 0.2,COc1ccc(C2CC(=O)C3=C(C2)Nc2ccccc2N(C(=O)c2ccccc2)C3c2ccc(OC)cc2)cc1 (stereo not shown) [14e]
2,> 80,Cc1ccc(C2C3=C(CC(c4cccc(Cl)c4)CC3=O)Nc3ccccc3N2C(=O)c2ccccc2)cc1 (stereo not shown) [14k]
3,> 80,Cc1ccc(C2C3=C(CC(c4ccccc4F)CC3=O)Nc3ccccc3N2C(=O)c2ccccc2)cc1 (stereo not shown) [14l]

# Further lines, the molecule ahead of its results:
row,Structure (SMILES),IC50 [µM]
1,O=C1CC(c2ccccc2)CC2=C1C(c1ccccc1)N(C(=O)c1ccccc1)c1ccccc1N2 (stereo not shown) [14a],1.1 ± 0.1
2,COc1ccc(C2CC(=O)C3=C(C2)Nc2ccccc2N(C(=O)c2ccccc2)C3c2ccccc2)cc1 (stereo not shown) [14b],1 ± 0.1
3,COc1ccc(C2C3=C(CC(c4ccc(C)cc4)CC3=O)Nc3ccccc3N2C(=O)c2ccccc2)cc1OC (stereo not shown) [14g],2.1 ± 0.5
4,COc1cccc(C2C3=C(CC(c4ccccc4)CC3=O)Nc3ccccc3N2C(=O)c2ccccc2)c1 (stereo not shown) [14h],> 80
5,COc1ccc(C2CC(=O)C3=C(C2)Nc2ccccc2N(C(=O)c2ccccc2)C3c2cccc(OC)c2)cc1 (stereo not shown) [14i],> 80
6,Cc1ccc(C2C3=C(CC(c4ccc(Cl)cc4)CC3=O)Nc3ccccc3N2C(=O)c2ccccc2)cc1 (stereo not shown) [14j],> 80
7,CC1CC(=O)C2=C(C1)Nc1ccccc1N(C(=O)c1ccccc1)C2c1cc(F)cc(F)c1 (stereo not shown) [14m],0.7 ± 0.05
